# Measured values as given in ChEMBL document CHEMBL1201862, “PubChem BioAssay data set” (2004).
# Values joined by “and” are separate entries in the source; they are usually repeats but may differ in a detail not shown here. Equal entries are not always repeated.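 Step 1: Grow cells in 96-well plates. Step 2: Expose to compound for 48 hours at 5 concentrations. Step 3: Interpolate endpoints linearly; if unreached, use highest concentration. GI50 marks 50% less growth.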 Active and inactive are the calls of the source. Cut-off read from the data, not from the text of the source: active = GI50 up to about 1.1 µM and inactive = higher.
# Columns and labels:
# Experiment in all cases: NCI anticancer screen, dose series, 48 h
# OVCAR-3 = test system: OVCAR-3
# HOP-18 = test system: HOP-18
# A549 = test system: A549
# XF498 = test system: XF498
# SK-OV-3 = test system: SK-OV-3
# CAKI-1 = test system: CAKI-1
# SF-539 = test system: SF-539
# OVCAR-8 = test system: OVCAR-8
# LOX IMVI = test system: LOX IMVI
# UO-31 = test system: UO-31
# HL-60 = test system: HL-60
# UACC-62 = test system: UACC-62
# HCT-15 = test system: HCT-15
# SK-MEL-5 = test system: SK-MEL-5
# HOP-92 = test system: HOP-92
# HCC 2998 = test system: HCC 2998
# 786-0 = test system: 786-0
# A498 = test system: A498
# EKVX = test system: EKVX
# SW-620 = test system: SW-620
# M19-MEL = test system: M19-MEL
# SK-MEL-28 = test system: SK-MEL-28
# MOLT-4 = test system: MOLT-4
# COLO 205 = test system: COLO 205
# SN12C = test system: SN12C
# SNB-19 = test system: SNB-19
# HCT-116 = test system: HCT-116
# HT-29 = test system: HT-29
# SR = test system: SR
# ACHN = test system: ACHN
# IGROV-1 = test system: IGROV-1
# SNB-78 = test system: SNB-78
# SK-MEL-2 = test system: SK-MEL-2
# RXF 393 = test system: RXF 393
# OVCAR-4 = test system: OVCAR-4
# SNB-75 = test system: SNB-75
# NCI-H226 = test system: NCI-H226
# Malme-3M = test system: Malme-3M
# KM12 = test system: KM12
# HOP-62 = test system: HOP-62
# OVCAR-5 = test system: OVCAR-5
# DLD-1 = test system: DLD-1
# NCI-H23 = test system: NCI-H23
# CCRF-CEM = test system: CCRF-CEM
# UACC-257 = test system: UACC-257
# DMS-273 = test system: DMS-273
# DMS-114 = test system: DMS-114
# KM-20L2 = test system: KM-20L2
# K562 = test system: K562
# TK-10 = test system: TK-10
# SF-268 = test system: SF-268
# NCI-H522 = test system: NCI-H522
# U-251 = test system: U-251
# M14 = test system: M14
# RPMI-8226 = test system: RPMI-8226
# NCI-H460 = test system: NCI-H460
# SF-295 = test system: SF-295
# LXFL 529 = test system: LXFL 529
# BT-549 = test system: BT-549
# PC-3 = test system: PC-3
# MDA-MB-231 = test system: MDA-MB-231
# Hs-578T = test system: Hs-578T
# MDA-MB-435 = test system: MDA-MB-435
# T47D = test system: T47D
# DU-145 = test system: DU-145
# MDA-N = test system: MDA-N
smiles,measurement,setting,value
CC1(C)O[C@@H](CCl)C[C@H](C#N)O1,GI50,OVCAR-3,> 100 µM (inactive)
same,GI50,HOP-18,> 100 µM (inactive)
same,GI50,A549,> 100 µM (inactive)
same,GI50,XF498,> 100 µM (inactive)
same,GI50,SK-OV-3,> 100 µM (inactive)
same,GI50,CAKI-1,> 100 µM (inactive)
same,GI50,SF-539,> 100 µM (inactive)
same,GI50,OVCAR-8,> 100 µM (inactive)
same,GI50,LOX IMVI,> 100 µM (inactive)
same,GI50,UO-31,> 100 µM (inactive)
same,GI50,HL-60,> 100 µM (inactive)
same,GI50,UACC-62,> 100 µM (inactive)
same,GI50,HCT-15,> 100 µM
same,GI50,SK-MEL-5,> 100 µM (inactive)
same,GI50,HOP-92,> 100 µM (inactive)
same,GI50,HCC 2998,> 100 µM (inactive)
same,GI50,786-0,> 100 µM (inactive)
same,GI50,A498,> 100 µM (inactive)
same,GI50,EKVX,> 100 µM (inactive)
same,GI50,SW-620,> 100 µM (inactive)
same,GI50,M19-MEL,> 100 µM (inactive)
same,GI50,SK-MEL-28,> 100 µM (inactive)
same,GI50,MOLT-4,> 100 µM (inactive)
same,GI50,COLO 205,> 100 µM (inactive)
same,GI50,SN12C,> 100 µM (inactive)
same,GI50,SNB-19,> 100 µM (inactive)
same,GI50,HCT-116,> 100 µM (inactive)
same,GI50,HT-29,> 100 µM (inactive)
same,GI50,SR,> 100 µM (inactive)
same,GI50,ACHN,> 100 µM (inactive)
same,GI50,IGROV-1,> 100 µM (inactive)
same,GI50,SNB-78,> 100 µM (inactive)
same,GI50,SK-MEL-2,> 100 µM (inactive)
same,GI50,RXF 393,> 100 µM (inactive)
same,GI50,OVCAR-4,> 100 µM (inactive)
same,GI50,SNB-75,> 100 µM (inactive)
same,GI50,NCI-H226,97.1 µM (inactive)
same,GI50,Malme-3M,> 100 µM (inactive)
same,GI50,KM12,> 100 µM (inactive)
same,GI50,HOP-62,> 100 µM (inactive)
same,GI50,OVCAR-5,> 100 µM (inactive)
same,GI50,DLD-1,> 100 µM (inactive)
same,GI50,NCI-H23,> 100 µM (inactive)
same,GI50,CCRF-CEM,> 100 µM (inactive)
same,GI50,UACC-257,> 100 µM (inactive)
same,GI50,DMS-273,> 100 µM (inactive)
same,GI50,DMS-114,> 100 µM (inactive)
same,GI50,KM-20L2,> 100 µM (inactive)
same,GI50,K562,> 100 µM (inactive)
same,GI50,TK-10,> 100 µM (inactive)
same,GI50,SF-268,> 100 µM (inactive)
same,GI50,NCI-H522,> 100 µM (inactive)
same,GI50,U-251,> 100 µM (inactive)
same,GI50,M14,> 100 µM (inactive)
same,GI50,RPMI-8226,> 100 µM (inactive)
same,GI50,NCI-H460,> 100 µM (inactive)
same,GI50,SF-295,> 100 µM (inactive)
Cc1ccc(NC(=O)C2C(=O)N(c3ccc(C)cc3)C(=O)/C2=N\NC(N)=S)cc1 (stereo unspecified),GI50,OVCAR-3,> 100 µM (inactive)
same,GI50,HOP-18,> 100 µM (inactive)
same,GI50,XF498,> 100 µM (inactive)
same,GI50,SK-OV-3,> 100 µM (inactive)
same,GI50,CAKI-1,> 100 µM (inactive)
same,GI50,SF-539,> 100 µM (inactive)
same,GI50,OVCAR-8,> 100 µM (inactive)
same,GI50,LOX IMVI,> 100 µM (inactive)
same,GI50,UO-31,> 100 µM (inactive)
same,GI50,UACC-62,> 100 µM (inactive)
same,GI50,HCT-15,> 100 µM
same,GI50,SK-MEL-5,> 100 µM (inactive)
same,GI50,HOP-92,> 100 µM (inactive)
same,GI50,HCC 2998,> 100 µM (inactive)
same,GI50,786-0,> 100 µM (inactive)
same,GI50,A498,> 100 µM (inactive)
same,GI50,EKVX,> 100 µM (inactive)
same,GI50,SW-620,> 100 µM (inactive)
same,GI50,M19-MEL,> 100 µM (inactive)
same,GI50,LXFL 529,> 100 µM (inactive)
same,GI50,SK-MEL-28,> 100 µM (inactive)
same,GI50,MOLT-4,> 100 µM (inactive)
same,GI50,COLO 205,> 100 µM (inactive)
same,GI50,SN12C,> 100 µM (inactive)
same,GI50,SNB-19,> 100 µM (inactive)
same,GI50,HCT-116,> 100 µM (inactive)
same,GI50,HT-29,> 100 µM (inactive)
same,GI50,ACHN,> 100 µM (inactive)
same,GI50,IGROV-1,> 100 µM (inactive)
same,GI50,SNB-78,> 100 µM (inactive)
same,GI50,SK-MEL-2,> 100 µM (inactive)
same,GI50,RXF 393,> 100 µM (inactive)
same,GI50,OVCAR-4,> 100 µM (inactive)
same,GI50,SNB-75,> 100 µM (inactive)
same,GI50,NCI-H226,> 100 µM (inactive)
same,GI50,Malme-3M,> 100 µM (inactive)
same,GI50,KM12,> 100 µM (inactive)
same,GI50,HOP-62,> 100 µM (inactive)
same,GI50,OVCAR-5,> 100 µM (inactive)
same,GI50,NCI-H23,> 100 µM (inactive)
same,GI50,UACC-257,> 100 µM (inactive)
same,GI50,DMS-273,> 100 µM (inactive)
same,GI50,DMS-114,> 100 µM (inactive)
same,GI50,KM-20L2,> 100 µM (inactive)
same,GI50,K562,> 100 µM (inactive)
same,GI50,TK-10,> 100 µM (inactive)
same,GI50,SF-268,> 100 µM (inactive)
same,GI50,NCI-H522,> 100 µM (inactive)
same,GI50,U-251,> 100 µM (inactive)
same,GI50,M14,> 100 µM (inactive)
same,GI50,RPMI-8226,> 100 µM (inactive)
same,GI50,NCI-H460,> 100 µM (inactive)
same,GI50,SF-295,> 100 µM (inactive)
Cc1cc(O)c2c(=O)c3c(O)cc(O)c4c5c(O)cc(O)c6c(=O)c7c(O)cc(C)c8c1c2c(c34)c(c78)c65 [HYPERICIN],GI50,OVCAR-3,> 100 µM (inactive) and 67 µM (inactive)
same,GI50,HOP-18,63.1 µM (inactive)
same,GI50,A549,52.6 µM (inactive)
same,GI50,XF498,71.1 µM (inactive)
same,GI50,BT-549,> 100 µM (inactive)
same,GI50,CAKI-1,> 100 µM (inactive)
same,GI50,PC-3,> 100 µM (inactive)
same,GI50,MDA-MB-231,10.1 µM (inactive)
same,GI50,OVCAR-8,74.3 µM (inactive)
same,GI50,Hs-578T,> 100 µM (inactive)
same,GI50,SK-MEL-5,59.8 µM (inactive)
same,GI50,786-0,> 100 µM (inactive)
same,GI50,EKVX,> 100 µM (inactive) and 62.5 µM (inactive)
same,GI50,SW-620,51.9 µM (inactive)
same,GI50,M19-MEL,44.2 µM (inactive)
same,GI50,SK-MEL-28,53.1 µM (inactive)
same,GI50,SN12C,60.8 µM (inactive)
same,GI50,SNB-19,> 100 µM (inactive)
same,GI50,SR,99.8 µM (inactive)
same,GI50,ACHN,> 100 µM (inactive)
same,GI50,SNB-78,42.5 µM (inactive)
same,GI50,MDA-MB-435,> 100 µM (inactive)
same,GI50,RXF 393,26.4 µM (inactive)
same,GI50,T47D,> 100 µM (inactive)
same,GI50,Malme-3M,61 µM (inactive)
same,GI50,KM12,54.5 µM (inactive)
same,GI50,DU-145,> 100 µM (inactive)
same,GI50,HOP-62,28.3 µM (inactive)
same,GI50,MDA-N,> 100 µM (inactive)
same,GI50,DLD-1,21.3 µM (inactive)
same,GI50,DMS-273,56.4 µM (inactive)
same,GI50,KM-20L2,21.7 µM (inactive)
same,GI50,K562,61.8 µM (inactive) and 33.3 µM (inactive)
same,GI50,TK-10,> 100 µM (inactive)
same,GI50,SF-268,54 µM (inactive)
same,GI50,M14,> 100 µM (inactive)
